Target: T1, Na+/Ca2+ exchanger NCX1.3 (Homo sapiens, UniProt P32418)
T1 construct: gene SLC8A1; full-length wild-type human NCX1.3 (UniProtKB P32418-2); model residues 51–283, 405–501, 518–637, 654–720, and 736–937
Assay: cryo-EM structure at […] Å; also CPM thermofluor shift (~[…] °C) and Fura-2 Ca2+ uptake inhibition at […] in HEK293T cells
Type: binding

Q: Which “cryo-EM structure at 3.5 Å; also CPM thermofluor shift (~10 °C) and Fura-2 Ca2+” value does the source give for `CCOc1ccc(Oc2ccc(OCc3cc(F)ccc3F)cc2)c(N)c1` [SEA0400] here?
A: The SEA0400 molecule is allocated within a negatively charged cavity surrounded by TM2ab, TM4, TM5, and TM8
